Consider 16 compounds from US10208074B2, “Pyrazole compounds and method for making and using the compounds” (Rigel Pharmaceuticals, Inc., priority 2015, dated 2019).

The structures appear in SMILES notation. pEC50: −log10 of the molar value. Counter-ions that a name gives are not always drawn. Like-named read-outs stand apart in the source and are kept apart here.

This experiment concerns IL-23p19. Put plainly: LPS induced IL23p19 in THP-1 cells (with IFNγ primed) assay. The format is cell-based, Human. To be noted: Homo sapiens, THP-1, 18 h; for pEC50: THP-1 cells, IFNγ primed, LPS 1 ug/mL, 18 hours, 10 pt, read-out: IL23-p19 ELISA, THP1-IFNy, LPS, 10 pt EC50. From the text: LPS Induced IL23p19 in THP-1 Cells (with IFNγ Primed) Assay
THP-1 Cells (ATCC, Cat#TIB-202), Dimethyl Sulfoxide (DMSO) (Sigma-Aldrich, Cat#D2650), RPMI 1640 (Cellgro, Cat#10-040-CM), Fetal Bovine Serum (Sigma, Cat#F4135), Albumin From Bovine Serum (BSA) (Sigma-Aldrich, Cat#A7906), LPS (Serotype K-235, Sigma, Product Number L 2143), IFNγ (Peprotech, Cat#300-02) Capture antibody: Human IL-23p19 ELISA (e-Bioscience, Cat. #14-7238-85), Detection antibody: Primary Mouse Biotinylated anti-human IL-12(p40/p70) (e-Bioscience, Cat. #13-7129-85), Secondary HRP-conjugated Streptavidin (R&D Systems, Cat#DY998), 1×PBST Washing Buffer (PBS-Tween tablet) (VWR International, Cat#80058-558), ELISA Blocking Buffer (PBS with 1% BSA), ELISA Dilution Buffer (PBS with 1% BSA), 384 Well Flat-Bottom, MaxiSorp Black Immuno Plates (Thermo Scientific, Cat#12-565-346), 384 Well Flat-Bottom, White Tissue Culture Plates (Thermo Scientific, Cat#12-565-343), Super Signal ELISA Pico Chemiluminescent Substrate (Thermo Scientific, Cat#37070), Cell Titer Glo reagent (Promega, Cat#G7573), Positive control, IKK2VI inhibitor (Calbiochem, Cat#401483), AquaMax 4000 plate washer (Molecular Devices), Luminometer, Wallac Victor2 1420 Multilabel Counter.
On day 1, 50K/well THP-1 cells were seeded and primed with IFNγ (50 ng/mL) in 384-well plates for about 18 hours in RPMI media with 10% FBS. On day 2, the compound was serially diluted in DMSO from 5 mM in 3-fold dilutions, and then diluted 1:125 in RPMI media with 10% FBS. 50 μL/well 2× compound was added to 50 μL/well THP-1 cells (with IFNγ primed) in duplicate in 384 well tissue culture plates. The cells were pre-incubated with compound for 1 hour at 37° C., 5% CO2 before addition of 10 μL/well 11×LPS to give a final concentration of 1 ug/mL LPS. Day 3, after stimulation for 18 hours at 37° C., 5% CO2, the assay plate was centrifuged and 70 μL/well supernatant was harvested. IL-23p19 protein in 70 μL/well of supernatant was measured by sandwich ELISA, and 25 μl/well Cell Titer Glo reagent was added to the remaining cells to measure compound toxicity.
Maxisorp immuno ELISA plates were pre-coated with 25 μL/well of anti-IL-23p19 capture antibody (2.5 ug/mL) in PBS overnight at room temperature. After washing with 1× PBST, the plates were blocked using 100 μL/well of 1% BSA in PBS for 2 hours at room temperature. The plates were washed three times with 1×PBST and 70 μL/well supernatant were added. The plates were incubated at room temperature for 2 hours with shaking and washed three times with 1×PBST. 25 μL/well of biotin labeled anti-IL-12(p40/p70) detection antibody (100 ng/mL) in PBS with 1% BSA was added and the plates were incubated at room temperature for 2 hours with shaking. After washing three times with 1×PBST, 25 μL/well of streptavidin-HRP (1:200) in PBS with 1% BSA was added and the plates were incubated at room temperature for 20 minutes with shaking. The plates were washed three times with 1× PBST and 25 μL/well of Super Signal ELISA Pico Chemiluminescent Substrate were added. The plates were read with a luminometer, and the chemiluminescence values were entered into Athena (Rigel) for curve fitting, EC50 calculation, and database storage.
On the technique in general: ELISA stands for enzyme-linked immunosorbent assay.

For orientation: pEC50 means the negative decadic logarithm of the EC50, by convention in mol/L. What is called EC50 is the midpoint of the concentration-response curve.

In the case of `COc1ccc(Cn2cc(-c3nc(C(=O)Nc4cn(C(=O)N(C)C)nc4-c4ccccn4)cs3)cn2)cc1` [II-105, N-(1-(dimethylcarbamoyl)-3-(pyridin-2-yl)-1H-pyrazol-4-yl)-2-(1-(4-methoxybenzyl)-1H-pyrazol-4-yl)thiazole-4-carboxamide], the pEC50 is 5.26.
As to `Cn1cc(NC(=O)c2csc(-c3cn[nH]c3)n2)c(C#N)n1` [II-137, N-(3-cyano-1-methyl-1H-pyrazol-4-yl)-2-(1H-pyrazol-4-yl)thiazole-4-carboxamide], the negative-log EC50 (pEC50) was 6.69.
Still for that read-out and setting: in the case of `COc1ccc(Cn2cc(-c3nc(C(=O)Nc4cn(CC(O)C(F)(F)F)nc4-c4ccccn4)cs3)cn2)cc1` (stereo not shown) [II-103, 2-(1-(4-methoxybenzyl)-1H-pyrazol-4-yl)-N-(3-(pyridin-2-yl)-1-(3,3,3-trifluoro-2-hydroxypropyl)-1H-pyrazol-4-yl)thiazole-4-carboxamide] it was 5.09.
Same read-out and setting: the result for `CCO[C@H]1C[C@@H](n2cc3c(n2)CCCN3C(=O)c2csc(-c3cn[nH]c3)n2)C1` [II-67, (2-(1H-pyrazol-4-yl)thiazol-4-yl)(2-((1s,3s)-3-ethoxycyclobutyl)-2,5,6,7-tetrahydro-4H-pyrazolo[4,3-b]pyridin-4-yl)methanone] reads 4.58; that for `O=C(Nc1cn(C2CCC2)nc1-c1ccccn1)c1ccc(-c2cnn(C3CCC3)c2)o1` [Compound I-122, 5-(1-cyclobutyl-1H-pyrazol-4-yl)-N-(1-cyclobutyl-3-(pyridin-2-yl)-1H-pyrazol-4-yl)furan-2-carboxamide 2,2,2-trifluoroacetate], 5.42.
In the case of `CCCOCn1cc(NC(=O)c2ccc(-c3c[nH]c([N+](=O)[O-])c3)o2)c(-c2ccccn2)n1` [Compound I-24, 5-(5-nitro-1H-pyrrol-3-yl)-N-(1-(propoxymethyl)-3-(pyridin-2-yl)-1H-pyrazol-4-yl)furan-2-carboxamide], the pEC50 was 5.37.
Same read-out and setting: the result for `CC1(O)CC(n2cc(NC(=O)c3csc(-c4cn[nH]c4)n3)c(-c3ccccn3)n2)C1` (stereo not shown) [II-87, N-(1-(3-hydroxy-3-methylcyclobutyl)-3-(pyridin-2-yl)-1H-pyrazol-4-yl)-2-(1H-pyrazol-4-yl)thiazole-4-carboxamide] reads 6.21; that for `O=C(Nc1cn(C(=O)N2CCOCC2)nc1-c1ccccn1)c1csc(-c2cn[nH]c2)n1` [II-129, N-(1-(morpholine-4-carbonyl)-3-(pyridin-2-yl)-1H-pyrazol-4-yl)-2-(1H-pyrazol-4-yl)thiazole-4-carboxamide], 6.42; that for `O=C(Nc1cn(C(F)F)nc1-c1ccccn1)c1csc(-c2cnn(C(F)F)c2)n1` [II-98, 2-(1-(difluoromethyl)-1H-pyrazol-4-yl)-N-(1-(difluoromethyl)-3-(pyridin-2-yl)-1H-pyrazol-4-yl)thiazole-4-carboxamide], 4.61.
Same read-out and setting: the result for `Cn1cc(NC(=O)c2coc(-c3cnn(CC4CC4)c3)n2)c(-c2ccccn2)n1` [III-1, 2-(1-(cyclopropylmethyl)-1H-pyrazol-4-yl)-N-(1-methyl-3-(pyridin-2-yl)-1H-pyrazol-4-yl)oxazole-4-carboxamide] reads 4.69.
For `CCOP(=O)(Cn1cc(-c2nc(C(=O)Nc3cn(C)nc3-c3ccccn3)cs2)cn1)OCC` [II-7, diethyl ((4-(4-((1-methyl-3-(pyridin-2-yl)-1H-pyrazol-4-yl)carbamoyl)thiazol-2-yl)-1H-pyrazol-1-yl)methyl)phosphonate], the concentration for a half-maximal effect (EC50) (read-out: IL23-p19 ELISA, THP1-IFNy, LPS, 10 pt EC50 (μM)) came out at 6.09 µM.
On to `COc1ccc(Cn2cc(-c3nc(C(=O)Nc4cn(CCF)nc4-c4ccccn4)cs3)cn2)cc1` [II-52, N-(1-(2-fluoroethyl)-3-(pyridin-2-yl)-1H-pyrazol-4-yl)-2-(1-(4-methoxybenzyl)-1H-pyrazol-4-yl)thiazole-4-carboxamide], for which the negative logarithm of the EC50 (pEC50) was 5.21.
As for `CCO[C@H]1C[C@@H](n2cc(NC(=O)c3csc(-c4c(C)n[nH]c4C)n3)c(-c3ccccn3)n2)C1` [II-93, 2-(3,5-dimethyl-1H-pyrazol-4-yl)-N-(1-((1,3-cis)-3-ethoxycyclobutyl)-3-(pyridin-2-yl)-1H-pyrazol-4-yl)thiazole-4-carboxamide], the negative logarithm of the EC50 (pEC50) was 6.96.
Same read-out and setting: in the case of `CCO[C@H]1C[C@@H](n2cc(NC(=O)c3csc(-c4cn[nH]c4)n3)c(C(F)(F)F)n2)C1` [II-62, N-(1-((1s,3s)-3-ethoxycyclobutyl)-3-(trifluoromethyl)-1H-pyrazol-4-yl)-2-(1H-pyrazol-4-yl)thiazole-4-carboxamide] it was 5.19; in that of `COc1ccc(Cn2cc(-c3nc(C(=O)Nc4c[nH]nc4-c4ccccn4)cs3)cn2)cc1` [II-53, 2-(1-(4-methoxybenzyl)-1H-pyrazol-4-yl)-N-(3-(pyridin-2-yl)-1H-pyrazol-4-yl)thiazole-4-carboxamide], 4.62.
As for `COCCOCCn1cc(-c2ccc(C(=O)Nc3cn(CCOCCOC)nc3-c3ccccn3)o2)cn1` [Compound I-52, 5-(1-(2-(2-methoxyethoxy)ethyl)-1H-pyrazol-4-yl)-N-(1-(2-(2-methoxyethoxy)ethyl)-3-(pyridin-2-yl)-1H-pyrazol-4-yl)furan-2-carboxamide formate], the pEC50 was 5.86.
